Data on five compounds can be found in US20210379020A1, “COMPOUNDS FOR THE TREATMENT OF MALARIA” (Merck Sharp & Dohme Corp., priority 2016, published 2021).

The subject of this assay is asexual P. falciparum 3D7 parasites. The assay can be described thus: P. falciparum growth inhibition assay with LDH activity readout (Assay 1). The conditions noted are these: 3D7 strain, 72 h incubation, LDH activity read by absorbance at 650 nm. The assay is classed as cell-based, Plasmodium falciparum. As to the method:
A modified version of the assay described in Gamo, F. J., Sanz, L. M., Vidal, J., de Cozar, C., Alvarez, E., Lavandera, J. L., Vanderwall, D. E., Green, D. V., Kumar, V., Hasan, S., Brown, J. R., Peishoff, C. E., Cardon, L. R., Garcia-Bustos, J. F., Nature, 465 (2010) 305-310 (Gamo et al.) was used to assess the activity of compounds against asexual P. falciparum 3D7 parasites. Compounds were pre-dispensed in 384-well plates, RPMI/AlbuMAX growth media was added and P. falciparum inoculated. Plates were incubated for 72 h and then frozen at −80° C. overnight. LDH activity was quantified with the modified cofactor 3-acetylpyridine adenine dinucleotide (APAD) (Sigma Aldrich) by measuring absorbance of the tetrazolium indicator nitro blue tetrazolium (NBT) (Sigma Aldrich) at 650 nm.
An inoculum of synchronous P. falciparum (3D7 strain) parasitized red blood cells (PRBC) at 0.7% parasitaemia and 2% haematocrit in RPMI-1640, 5% AlbuMAX, 2% D-sucrose, 0.3% glutamine and 150 μM hypoxanthine was used for the assay.
Compound master plates (384-well) were prepared by a 10 pt serial dilution of compounds, from 1 mM to 50.8 nM, in columns 3-12 and 13-22. DMSO was dispensed into columns 1 and 23 of the compound master plate to be used as the positive growth control (100% viability). […] Intermediate compound dilution plates were prepared by dispensing 1 μl from each well of the compound master plate into 11.5 μl of RPMI/AlbuMAX growth media. Duplicate assay plates (384-well) were then prepared by dispensing 0.5 μL of compound from the intermediate dilution plates into 9.5 μl of RPMI/AlbuMAX growth media. The parasite inoculum (30 μL) was dispensed into the assay plates containing compounds using a Multidrop dispenser (Thermo Scientific) such that the final assay volume was 40 μL and final compound concentration was 1 μM-0.05 nM (the volume of compound addition can be adjusted to the preferred and agreed screening concentration). The final DMSO concentration was 0.1% (ideally 0.2% to limit toxicity to parasites), but this is dependent on volume of compound DMSO stock solution that can be supplied. Plates were incubated at 37° C. for 72 h in an atmosphere of 5% CO2, 5% O2, […].
After 72 h of incubation, plates were frozen at −80° C. overnight and then thawed at room temperature for at least 4 h. To evaluate LDH activity, 45 μL of freshly made reaction mix (174 mM sodium L-lactate (Sigma Aldrich), 214 μM 3-acetyl pyridine adenine dinucleotide (APAD) (Sigma Aldrich), 270 μM nitro blue tetrazolium chloride (NBT) (Sigma Aldrich), 4.35 U/mL diaphorase (from Clostridium kluyveri) (Sigma Aldrich), 0.7% Tween 20, 100 mM Tris-HCl pH 7.5) was dispensed using a Multidrop dispenser (Thermo Scientific). Plates were shaken to ensure mixing and absorbance at 650 nm was monitored using a Perkin Elmer Envision plate reader after 30 min of incubation at room temperature. Data were normalized to percent growth inhibition using positive and negative controls, and analysed using TIBCO Spotfire software.
P. falciparum 3D7 strain was grown as described in Assay 1, at 37° C. for 72 hours. The culture was frozen at −80° C. overnight. Cultures were thawed at room temperature for at least 4 hours and the reaction mixture described in Assay 1 was made in order to measure the possible direct inhibition of LDH by the following compounds, assayed as above in Assay 1.
The IC50 is the point on the concentration scale where inhibition reaches its midpoint. A lower IC50 goes with higher potency. `CC(=O)N1CCN(C(=O)c2cc(F)cc(CN3C(=N)NC(c4ccccc4)(c4ccccc4)C3=O)c2)CC1` [Compound 1] registered an IC50 of 4.5 nM.
The compound `N=C1NC(C[C@@H]2CCCO2)(c2ccccc2)C(=O)N1Cc1ccc(C(F)(F)F)c(C(=O)N2Cc3nccnc3C2)c1` (some centres unmarked) [Compound 2] came in with an IC50 of 5.8 nM.
As for `CC(C)CC[C@]1(c2ccccc2)NC(=N)N(Cc2ccc(C(F)(F)F)c(C(=O)N3CC(O)C(F)C3)c2)C1=O` (some centres unmarked) [Compound 3], 9.6 nM corresponded to half-maximal inhibition (IC50).
Under `N=C1NC(c2ccc(F)cc2)(C2CCCCC2)C(=O)N1Cc1ccc(C(F)(F)F)c(C(=O)N2Cc3nccnc3C2)c1` (centres unmarked) [Compound 4] stands 9.7 nM.
For `CC(C)CC[C@]1(c2ccccc2)NC(=N)N(Cc2ccc(C(C)(C)C)c(C(=O)NCc3cccnc3)c2)C1=O` [Compound 11], half-maximal inhibition (IC50) was put at 172 nM.
